The results in this text go back to US20160320368A1, “METHOD AND APPARATUS FOR PREDICTING EFFECTIVE DOSE OR SENSITIVITY OF 5-HYDROXY-1H-IMIDAZOLE-4-CARBOXAMIDE, METHOD FOR DETERMINING AMOUNT OF XANTHOSINE MONOPHOSPHATE, AND TREATMENT AGENT AND METHOD FOR TREATING MYELODYSPLASTIC SYNDROME” (FUJIFILM Corporation, priority 2014, published 2016).

For one series, the system named is GTP in whole blood. The series is described as follows: GTP in whole blood (Example 8). The following applies: 37° C., 8 hours, non-treated = 100%. The format is cell-based, human. As for the experimental part: (§1) A ¾ hydrate of Compound A was used as a test compound.
(§2) 450 μL of the blood collected from healthy individuals by heparinized blood collection was added to each tube, and 50 μL of a PBS solution of the test compound (0 μg/mL, 1 μg/mL, 10 μg/mL, or 100 μg/mL in terms of Compound A) for each concentration was added to each tube. The reaction mixture was stirred in an incubator at 37° C. for 8 hours.
(§3) 400 μL of methanol was added to 100 μL of the blood sample obtained in (1). After stirring, 400 μL of chloroform was added, followed by further stirring. 120 μL of ultrapure water was added thereto, followed by stirring and then centrifugation at 4° C. and 10000×g for 15 min. 400 μL of the aqueous phase was recovered and added to an ultrafiltration tube, followed by centrifugation at 12° C. and 9200×g for 2 hours. The filtrate was dried under reduced pressure at 40° C. for 2 hours by using a centrifugal evaporator. After drying, the resulting product was stored in a freezer at −80° C.
(§4) The samples obtained in (2) were returned to room temperature and 40 μL of ultrapure water was added to each sample. The mixture was stirred and centrifuged at 4° C. and 21500×g for 5 min. 35 μL of the supernatant was transferred to a vial. After storage at 4° C., XMP, GMP and GTP in the samples were determined in the LC-MS/MS determination instrument and LC conditions described in Example 3 (3), and MS/MS conditions shown in Table 15.
(§5) Amounts of XMP, GMP and GTP (%) were calculated assuming that the XMP, GMP and GTP values of a non-Compound A treated group (peak area value) are defined as 100%.

Series [1] can be described thus: PK test of Compound A, single oral administration, plasma concentration. In kind it is in vivo, female mice (BALB/cAJcl). The following applies: from 10 mg/kg up to 80 mg/kg. As for the experimental part:
Non-fasting female mice (BALB/cAJcl) were given a single oral administration of the test compound (10 mg/kg, 40 mg/kg, 80 mg/kg and 160 mg/kg in terms of Compound A).
V1/F, K01, K10, K12 and K21, pharmacokinetic parameters of the two-compartment model, were calculated from the plasma concentration course of Compound A when Compound A was given as a single oral administration. These parameters were used to predict the plasma concentration course of Compound A upon repeated administration in a variety of dosage regimen. […] The parameter of 160 mg/kg was used to carry out the prediction for 120 mg/kg and 240 mg/kg. […] PK parameters (Cmax, Time above IC50 and AUC0-48) were plotted on the X axis, and the inhibition rate of tumor volume was plotted on the Y axis.

The subject of the next series is XMP in whole blood. The series is described as follows: XMP in whole blood (Example 8). The format is cell-based, human. The following applies: 37° C., 8 hours, non-treated = 100%. As for the experimental part: as §1, §2, §3, §4, §5
For a further series, the system named is GMP in whole blood. Kind of series: GMP in whole blood (Example 8). The format is cell-based, human. The following applies: 37° C., 8 hours, non-treated = 100%. As for the experimental part:
as §1, §2, §3, §4, §5

Series [2] has as its system XMP in blood cells of healthy human. Kind of series: XMP in blood cells of healthy human (hemolysis, Example 4). The format is cell-based. The following applies: 37° C., 8 hours, non-treated = 100%. Here is the method: as §1
450 μL of the blood collected from two healthy individuals by heparinized blood collection (Analyte A and Analyte B) was added to each of 1.5 mL tubes, and 50 μL of a PBS solution of the test compound (0 μg/mL, 10 μg/mL, 30 μg/mL, 100 μg/mL, 300 μg/mL, or 1000 μg/mL in terms of Compound A) for each concentration was added to each tube. The reaction mixture was stirred in an incubator at 37° C. for 8 hours. Then, BD Pharm Lyse (555899, manufactured by Becton, Dickinson and Company, Inc.) was added to the blood (2 mL of BD Pharm Lyse was added relative to 0.2 mL of blood). After stirring with a vortex mixer, the reaction solution was protected from light and allowed to stand at room temperature for 15 min. After centrifugation at 20° C. and 1000×g for 5 min, the supernatant was removed and suspended in 10 mL of a PBS solution. After centrifugation at 4° C. and 1000×g for 5 min, the supernatant was removed, and 1000 μL of methanol was added to each tube, followed by stirring. Thereafter, 500 μL of ultrapure water was added thereto, followed by further stirring. 600 μL of the reaction solution was divided into each of two tubes, and 400 μL of chloroform was added to each tube. The reaction solution was stirred and then centrifuged at 4° C. and 10000×g for 15 min. 400 μL of the aqueous phase was recovered and added to an ultrafiltration tube, followed by centrifugation at 12° C. and 9200×g for 2 hours. The filtrates were combined and then dried under reduced pressure at 40° C. for 2 hours by using a centrifugal evaporator. After drying, the resulting product was stored in a freezer at −80° C.
The samples stored in (1) and (2) were returned to room temperature and 40 μL of ultrapure water was added to each sample. The mixture was stirred and centrifuged at 4° C. and 21500×g for 5 min. 35 μL of the supernatant was transferred to a vial. After storage at 4° C., XMP in samples was determined in the LC-MS/MS determination instrument, LC conditions and MS/MS conditions described in Example 3 (3).
Amounts of XMP (%) were calculated assuming that the XMP value of a non-Compound A treated group (peak area value) is defined as 100%.

SMILES strings stand for the structures.

Turning to `NC(=O)c1nc[nH]c1O` [Compound A, 5-Hydroxy-1H-imidazole-4-carboxamide], the “Amount of each compound in whole blood (%) GTP” value worked out at 89% in the series with GTP in whole blood (Compound A 1 μg/mL), 86% with GTP in whole blood (Compound A 10 μg/mL) and 79% with GTP in whole blood (Compound A 100 μg/mL). Also, the “linearity of plasma pharmacokinetics” value in series [1] was “linearity was recognized”. For the same molecule, the “Amount of each compound in whole blood (%) XMP” value with XMP in whole blood (Compound A 1 μg/mL) is on record as 55%; in the series on XMP in whole blood (Compound A 10 μg/mL), 30%; in the series with XMP in whole blood (Compound A 100 μg/mL), 13%. The “Amount of each compound in whole blood (%) GMP” value with GMP in whole blood (Compound A 1 μg/mL) stood at 85%; with GMP in whole blood (Compound A 10 μg/mL), 85%; in the series with GMP in whole blood (Compound A 100 μg/mL), 91%. The “Amount of XMP (%) Analyte A” value in series [2] (Compound A 1 μg/mL) is on record as 60%; in series [2] (Compound A 3 μg/mL) it was 45%; in series [2] (Compound A 10 μg/mL), 37%; in series [2] (Compound A 30 μg/mL) it was 27%; in series [2] (Compound A 100 μg/mL) it was 16%. For the same molecule, the “Amount of XMP (%) Analyte B” value stood at 51% in series [2] (Compound A 1 μg/mL); 37% in series [2] (Compound A 3 μg/mL); 25% in series [2] (Compound A 10 μg/mL); 18% in series [2] (Compound A 30 μg/mL); 10% in series [2] (Compound A 100 μg/mL).
